Assay results published in US20070111251A1, “Chemical address tags” (priority 2003, published 2007).

Legend:
[1] = Additive decomposition of peak excitation and emission wavelengths (model coefficients of A and B groups); conditions: A group 1 as baseline; for αi^em: influence of A group on peak emission wavelength; for αi^ex: influence of A group on peak excitation wavelength
From the text: The chemical structure of the styryl library is illustrated in FIG. 3. […] Initial analysis focused on measurements of peak emission and excitation wavelength obtained for all styryl products showing a single, localized peak (there were 256 such compounds for emission wavelength, and 193 compounds for excitation wavelength). […] The wavelength for the styryl compound formed by joining A group i with B group j is denoted as λij (or more specifically, λij^ex for excitation wavelength and λij^em for emission wavelength). The additive model λij=ai+βj+εij was fit to the data using least squares yielding parameters αi^ex, αi^em, βj^ex, and βj^em that quantify the influence of each A and B group on the spectrum of the styryl product. […] (FIGS. 8A-8B). […] The predictions were made ignoring interactions between the two functional moieties in the styryl compound. The predicted values were obtained without bias, by holding out the data point to be predicted when training the model.
In preferred embodiments, using the cross-validation approach disclosed herein, each compound was held out in sequence, the model was trained using the remaining compounds, then the wavelength value for the held-out compound was predicted based on the resulting fitted model. This process produced correlations between measured and predicted values of ρ^em=0.78 (emission) and ρ^ex=0.69 (excitation).
Based on this analysis, the contribution of the A and B functional groups to the fluorescence of the styryl product is quantified using the fitted coefficients αi^ex, βj^ex, […], and βj^em. Since these coefficients are on a scale without origin, in some embodiments, the invention uses the first A group and B group as a baseline, so […], β1^ex=0, and so on. Table 3 contains the model coefficients of all A and B groups for peak excitation and emission wavelength.
Greater values of αi^ex, αi^em, βj^ex, and βj^em indicate greater peak wavelength. Greater values of αi^mito and […] indicate stronger mitochondrial localization. A groups 40 and 41 were not screened for localization. A groups 2, 29, and 33 only formed fluorescent products with a single B group, so were not included in the spectral analysis.
In some embodiments, the wavelength values for peak excitation and emission were fit to the additive model λij=αi+βj+εij, where εij denotes error that is made as small as possible in the fitting process. Using least squares to minimize the function [formula] over all compounds having experimental data yields coefficient estimates αi for each A group and βj for each B group. One set of coefficient estimates is obtained for the excitation values and another set is obtained for the emission values. To predict the wavelength of a new compound formed from A and B groups i* and j* the sum αi*+βj* is used.
In some embodiments, for both the spectral and localization analysis, cross-validation was used to obtain unbiased estimates of the prediction performance. Each compound was held out in sequence, and the coefficients αi and βj were fit to the remaining compounds. These values were then used to form a prediction for the held out compound, then the predicted and experimental values were compared to obtain a measure of the accuracy of prediction. Since the wavelength values are on a continuous scale, the predicted values were compared to the experimental values using Pearson correlation coefficients. The localization values are dichotomous, so the proportion of matching predictions was used to compare predicted and experimental localization values.

[2] = tested on: mitochondria; test: QSLR factorial logistic regression of mitochondrial localization (affinity coefficients, cross-validated prediction); design: species or system human; conditions: for αi^mito: influence of A group on mitochondrial localization, greater = stronger; for estimated A group affinity coefficient ai: mitochondrial affinity, ±5 for groups always or never mitochondrial
From the text: The first column and first row contain the A group and B group labels. The second column and second row contain the estimated A group and B group affinity coefficients (ai and bj respectively). The interior of the table contains the value sij=ai+bj for each compound (where positive values of sij indicate predicted localization to mitochondria, and negative values of sij indicate predicted localization to a non-mitochondrial compartment). The subscript m indicates experimentally determined mitochondrial localization. The subscript o indicates experimentally determined non-mitochondrial localization. The darkened boxes indicate correctly predicted mitochondrial localizations under cross-validation.
Based on this matrix, factorial logistic regression (See, A. Agresti, Categorical Data Analysis, Wiley [2002]) was used to calculate mitochondrial affinity coefficients (ai and bj) for each A and B moiety. (Table 1). Since it is not necessary to observe all possible pairings between A and B building blocks to estimate the affinity coefficients, the QSLR approach can predict localization of unmeasured styryl molecules based on a minimal set of experimentally-determined localizations (see Methods). The methods of the present invention allow assessment of predictivity using the cross-validation technique by holding out one compound and fitting the affinity coefficients using the remaining compounds, predictivity can be assessed by comparing the actual localization of the held-out compound to its predicted localization. Repeating this for every measured compound in the library yields an error rate for the procedure.
Briefly, this technique assigns quantitative scores to each A group (αi^mito) and to each B group (βj^mito), in such a way that αi^mito+βj^mito is positive for compounds with mitochondrial localization, and is negative for compounds lacking mitochondrial localization. […] In additional embodiments, same analysis can be applied to organelles other than mitochondria, provided there are a sufficient number of localizations to specific non-mitochondrial organelles in the combinatorial library of interest for reliable statistical calculations.
In certain embodiments, the predictive performance of the above method was assessed using a cross-validation approach by calculating the proportion of all compounds that are correctly predicted. For cross-validation, each styryl product was set aside in sequence, and the factorial logistic model was fit to the remaining data. Then the resulting A and B scores for the held-out compound were summed. If the sum was positive, the held-out compound was predicted to be mitochondrial, while if the sum was negative, the held-out compound was predicted to be non-mitochondrial. […] The baseline performance of the method scored 104 correct out of 145, or 72%. This number is highly statistically significant compared to random guessing (p-value ˜10^−7). Thus, across the entire library, A and B moieties appear to contribute to localization in an independent, additive fashion.
In some embodiments, subcellular localization data were converted to binary (0/1) values by assigning a value Gij=1 if compound i,j localized to mitochondria (even if it localized to other […] as well), and assigning Gij=0 if compound i,j localized exclusively to any non-mitochondrial cellular structure. Compounds with no localization were omitted from this part of the analysis. The αi and βj coefficients for A or B groups that are always observed to localize to mitochondria, or that never localize to mitochondria, were set to +/−5, respectively. The binary localization data were analyzed using factorial logistic regression. […]

[3] = tested on: HeLa cells; test: Kinetic imaging of NBD-triazine probe uptake and sequestration, fitted to nested two-compartment transport model; type: cell-based; conditions: median over optimal solutions within 5% of the best fit
Protocol: In living cells, image data was simultaneously acquired with an automated, high-content, kinetic screening instrument equipped with an environmental chamber (see, e.g., V. C. Abraham, D. L. Taylor and J. R. Haskins, Trends in Biotechnology 22, 15 (2004); herein incorporated by reference in its entirety), as cells were incubated with the fluorescent molecules and after removal of extracellular probe. Data was analyzed off line, using an image analysis algorithm to measure the statistical pixel intensity distribution associated with fluorescence probe sequestration in the perinuclear region (see, e.g., FIG. 21; see also, e.g., G. J. Ding et al., Journal of Biological Chemistry 273, 28897 (1998); herein incorporated by reference in its entirety). Data was parametrized with a nested, two-compartment, transport model (see, e.g., W. E. Evans, J. J. Schentag and W. J. Jusko., Applied Pharmacokinetics: Principles of Therapeutic Drug Monitoring (Lippincott Williams & Wilkins, Vancouver, W.A., 1992); herein incorporated by reference in its entirety), using a statistical link function to relate the kinetic coefficient of variation (CV) of pixel intensities in the images with the concentration of probe in vesicles and cytoplasm. Optimal kinetic parameters fitting the experimental data for each probe to the system described by the two-compartment model and statistical link function were determined using the simulated annealing technique (see, e.g., M. Pincus., Oper. Res. 18, 1225 (1979); herein incorporated by reference in its entirety). The present invention is not limited to a particular mechanism. Indeed, an understanding of the mechanism is not necessary to practice the present invention.
To assess how well the model accounts for all the different kinetic traces acquired, a “PVE” (proportion of variance explained) by the model was calculated. The PVE is one minus the ratio of the sum of squared differences between observed and fitted values to the sum of squared differences between observed values and their mean. PVE values close to one indicate good fit to the nested two-compartment model. The average PVE across the probes was 0.92, with >50% of the probes yielded PVE values […]. The present invention is not limited to a particular mechanism. Indeed, an understanding of the mechanism is not necessary to practice the present invention.
Cell culture. HeLa cells were grown in RPMI+10% FCS in a 5% CO2 atmosphere at 37° C. and plated in 96-well plates at a density of 3000 cells/well 24 hours prior to the start of the experiment.
Kinetic Imaging. For influx experiments, cells on 96-well plates were switched to imaging media consisting of RPMI containing 1.0 mM Bromophenol Blue—a soluble, cell-impermeant chromophore used to suppress excitation and emission of extracellular (background) dye fluorescence-, 10 μM probe and 0.1 μM Hoescht 33258 to label the cell nuclei. Plates were then transferred to a KineticScan instrument (Cellomics, Inc., Pittsburgh, Pa.), which contains an environmentally controlled CO2/temperature/humidity chamber, and data was acquired with a 20× objective lens. Images acquisition began approximately 10 min after dye addition, using the Hoescht channel to acquire nuclear images and FITC channel to acquire the NBD image. Plate-scanning mode was used for scanning, in which the instrument builds time-stacks of images by scanning the plate multiple times, returning to the same site of the plate at every scan. For efflux experiments, dye-containing media was removed from the wells of the plate. The wells were washed twice with fresh RPMI medium, imaging media was added, and image acquisition restarted 7 min after the dye-containing media was removed. The last time points of the influx experiment served as the first time point of the efflux experiment. Plates were scanned for approximately two hours in the influx experiment and six hours for the efflux experiment, with each well imaged on average every 7 minutes. […]

Row | αi^em [1] | αi^ex [1] | median Pap(cyto) (apparent partition coefficient between extracellular medium and cytosol) [3] | median Pap(ves) (apparent partition coefficient between cytosol and intracellular vesicles, k(ves)in/k(ves)out) [3] | SMILES | αi^mito [2] | estimated A group affinity coefficient ai [2]
1 | – | – | 6.63 | 29.18 | Cc1ccc(CNc2nc(NCCCCCCNc3ccc([N+](=O)[O-])c4nonc34)nc(NC3CCCCC3)n2)cc1 [Compound G7] | – | –
2 | – | – | 8.29 | 24.73 | Cc1ccc(CNc2nc(NCCCCCCNc3ccc([N+](=O)[O-])c4nonc34)nc(NCCC(C)C)n2)cc1 [Compound G8] | – | –
3 | – | – | 267.03 | 0.20 | Cc1ccc(CNc2nc(NCCCCCCNc3ccc([N+](=O)[O-])c4nonc34)nc(NCCc3ccccn3)n2)cc1 [Compound G9] | – | –
4 | – | – | 161.46 | 0.42 | CCCCNc1nc(NCCCCCCNc2ccc([N+](=O)[O-])c3nonc23)nc(NCc2cccc(OC)c2OC)n1 [Compound H1] | – | –
5 | – | – | 10.30 | 9.91 | COc1cccc(CNc2nc(NCCCCCCNc3ccc([N+](=O)[O-])c4nonc34)nc(NC(C)C)n2)c1OC [Compound H2] | – | –
6 | – | – | 7.51 | 14.91 | CCCCCCCCNc1nc(NCCCCCCNc2ccc([N+](=O)[O-])c3nonc23)nc(NCc2cccc(OC)c2OC)n1 [Compound H3] | – | –
7 | – | – | 5.12 | 16.80 | COc1cccc(CNc2nc(NCCCCCCNc3ccc([N+](=O)[O-])c4nonc34)nc(NC3CCCCC3C)n2)c1OC (centres unmarked) [Compound H5] | – | –
8 | – | – | 8.77 | 22.55 | COc1cccc(CNc2nc(NCCCCCCNc3ccc([N+](=O)[O-])c4nonc34)nc(NCC3CCCCC3)n2)c1OC [Compound H6] | – | –
9 | – | – | 12.95 | 15.10 | COc1cccc(CNc2nc(NCCCCCCNc3ccc([N+](=O)[O-])c4nonc34)nc(NCCC(C)C)n2)c1OC [Compound H8] | – | –

Continued, compound first:

Row | SMILES | αi^em [1] | αi^ex [1] | median Pap(cyto) (apparent partition coefficient between extracellular medium and cytosol) [3] | median Pap(ves) (apparent partition coefficient between cytosol and intracellular vesicles, k(ves)in/k(ves)out) [3] | αi^mito [2] | estimated A group affinity coefficient ai [2]
10 | O=CCc1ccccc1 [A group 1] | 0.0 nm | 0.0 nm | – | – | −0.2 | −0.2
11 | O=Cc1ccccc1 [A group 2] | – | – | – | – | 5.0 | 5.0
12 | O=Cc1ccccc1Br [A group 3] | 46.3 nm | 35.7 nm | – | – | 5.0 | 5.0
13 | O=Cc1cccc(Br)c1 [A group 4] | 23.5 nm | −34.0 nm | – | – | −5.0 | −5.0
14 | O=Cc1ccc(Br)cc1 [A group 5] | 26.7 nm | −32.3 nm | – | – | 5.0 | 5.0
15 | O=Cc1ccc(Cl)cc1 [A group 6] | −9.5 nm | 4.9 nm | – | – | 5.0 | 5.0
16 | O=Cc1ccccn1 [A group 40] | 64.8 nm | −18.1 nm | – | – | – | –
17 | O=Cc1ccc2ccc3cccc4ccc1c2c34 [A group 41] | 46.9 nm | 26.1 nm | – | – | – | –
